In general, Ki refers to a dissociation constant, usually derived from enzyme kinetics or from competition with a known ligand. High values mean a looser hold on the target, low ones a stronger hold on the target.

In the assay the target is T1, glOTC (Giardia duodenalis, UniProt O76458).
T1 sequence (O76458 1-327): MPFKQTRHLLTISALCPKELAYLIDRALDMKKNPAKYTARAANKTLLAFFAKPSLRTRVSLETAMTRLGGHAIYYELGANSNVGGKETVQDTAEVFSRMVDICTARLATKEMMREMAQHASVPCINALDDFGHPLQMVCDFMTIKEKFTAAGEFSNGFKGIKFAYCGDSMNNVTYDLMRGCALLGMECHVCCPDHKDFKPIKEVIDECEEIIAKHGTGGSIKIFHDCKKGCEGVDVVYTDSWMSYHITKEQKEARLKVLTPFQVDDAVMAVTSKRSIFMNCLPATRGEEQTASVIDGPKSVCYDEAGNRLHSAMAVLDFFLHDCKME
In words: coupled spectrophotometric assay at […] nm. In kind it is biochemical.

Each structure is given as a SMILES string.

In the case of `N[C@@H](CCCNC(=O)CP(=O)(O)O)C(=O)O` [PALO, N-phosphonoacetyl-L-ornthine], the inhibition constant (Ki) was found to be 25 ± 9 nM.

(Values after article PMC2753476 (Proteins, 2009).)
